Measurements as given in a melting point compilation (Tetko et al.; mined from patent text by program, amines drawn as free bases though some values may be those of a salt).

| Structure (SMILES) | melting point |
| --- | --- |
| Cc1cc(=O)[nH]c2cc(OCCCN3CCC(NC(=O)c4ccccc4)CC3)ccc12 | 275 to 276 °C |
| CNC(=O)c1ccc(-c2cnc3[nH]c(=O)n(CC4CCOCC4)c3n2)cc1 | 328 to 330 °C |
| CS(=O)(=O)C(=C1CN(C(c2ccc(Cl)cc2)c2ccc(Cl)cc2)C1)c1cc(F)cc(F)c1 | 200 °C |
| O=S(=O)(NCCCl)c1ccccc1 | 58 to 62 °C |
| COc1cc2c(cc1OC)CN(CCCCNC(=O)c1cc(Br)ccc1OCCF)CC2 | 119 to 121 °C |
| CC(C)OC(=O)C1CCCN1S(=O)(=O)c1ccc(N2CCC(=O)CC2)cc1 (centres undefined) | 97 to 101 °C |
| O=C(Nc1ccc(CCc2nnn[nH]2)cc1)C(F)(F)C(F)(F)C(F)(F)F | 161 to 162 °C |
| CN(C)CCc1[nH]c2ccccc2c1CC(N)=O | 114 to 117 °C |
| CC(N=c1cccccc1NC(C)c1ccccc1)c1ccccc1 (centres undefined) | 74 °C |
| CCNC(=O)[C@@H](C[C@H](O)[C@H](CC1CCCCC1)NC(=O)OC(C)(C)C)C(C)(C)O | 155 to 157 °C |
| Cc1nc(C(C)c2ccccc2)c2c(c1O)COC2 (centres undefined) | 163 °C |
| COc1ccc(OC)c2c1Cc1c([nH]cnc1=O)N2 | > 300 °C |
| COC(=O)C(Cc1cccc(-c2nc(=O)c3ccccc3s2)c1)NC(=O)c1ccccc1 (centres undefined) | 131 °C |
| O=C(O)C1Oc2cc3onc(-c4ccccc4)c3c(Cl)c2O1 (centres undefined) | 102 °C |
| CC(C)(C)OC(=O)N[C@H](Cc1ccc(Cl)c(Cl)c1)C(=O)N1CCC[C@H]1C(=O)NC1CCc2nc(N)ncc2C1 (some centres undefined) | 114 to 117 °C |
| CCc1cc2c(-c3ccccc3Cl)nc(=O)n(C)c2s1 | 99 °C |
| Cc1cc(=O)c(Oc2ccc(F)cc2C)c(-c2ccc(S(C)(=O)=O)cc2)o1 | 146 °C |
| CC(O)(CF)C(=O)Nc1ccc(S(=O)(=O)c2ccccc2)cc1 (centres undefined) | 189 to 192 °C |
| O=C1CCc2cc(O)ccc21 | 185 to 187 °C |
| O=C(O)C1=Cc2cc(-c3ccc(F)cc3)ccc2OC1C(F)(F)F (centres undefined) | 207 to 210 °C |
| COc1cc2c(cc1OC)CN(c1c(C)c(C)c3c(c1C)C(c1ccccc1)C(C)(C)O3)C2 (centres undefined) | 154 to 157 °C |
| CN(C)CCN1C(=O)C(NC(=O)c2ccc(NS(C)(=O)=O)cc2)C(C)(C)SC1=S (centres undefined) | 158 to 159 °C |
| O=C(O)COc1cccc2c1CCc1sc(SCc3ccc(-c4ccccc4)cc3)nc1-2 | 198 to 200 °C |
| Cc1ccc(C2c3c(C)c(NC(=O)OC(C)(C)C)c(C)c(C)c3OC2(C)C)cc1 (centres undefined) | 124 to 125 °C |
| CC(c1ccc2c(c1)Cc1ccccc1-2)n1ccnn1 (centres undefined) | 160 to 162 °C |

| Structure (SMILES) | melting point |
| --- | --- |
| COC(=O)[C@H](Cc1cc(Cl)c(OCCc2coc(-c3cccc(OCc4ccccc4)c3)n2)c(Cl)c1)NC(=O)C(F)(F)F | 111 to 113 °C |
| c1ccc(CCn2cnc3cnc4ccccc4c32)cc1 | 105 to 108 °C |
| CCOCCn1c(CN2CCN(Cc3ccccc3)CC2C)nc2cccnc21 (centres undefined) | 91.2 °C |
| CC(ON=Cc1c(F)cccc1Cl)C(=O)O (centres undefined) | 106 to 107 °C |
| CC(C)(C)[C@H]1Cn2c(nc3c(C4OCCO4)cccc32)-c2ccccc2O1 | 150 to 152 °C |
| COC(=O)c1[nH]c2c(C)ccc(C)c2c1C(N)=O | 201 to 202 °C |
| CCOC(=NC#N)N[C@@H]1c2cc(C#N)ccc2OC(C)(C)[C@H]1O (relative stereo) | 193 to 196 °C |
| O=C(NCCCCC1CCSS1)NS(=O)(=O)NC(=O)NCCCCC1CCSS1 (centres undefined) | 153 to 156 °C |
| CCc1ccccc1NS(=O)(=O)c1ccc(N2CCNC2=O)cc1 | 171 to 172 °C |
| CCn1cc2c(C3CC3CNC(C)=O)cccc2n1 (centres undefined) | 155 to 159 °C |
| COc1nc(Cl)n2nc(SCc3ccccc3)nc2c1Br | 124 to 125 °C |
| CC(=O)c1c(C#N)nn(-c2c(Cl)cc(C(F)(F)F)cc2Cl)c1N | 200 to 201 °C |
| CCCCCCCCCCc1nnn(C(C(=O)O)c2ccccc2)n1 (centres undefined) | 62 to 64 °C |
| O=C1C=C2CCCCC2N1c1ccc(OCCN2CCCCC2)c(Cl)c1 (centres undefined) | 98 °C |
| CC(=O)c1ccc(C(C)Oc2cccc(C(=O)Nc3ccc(C#N)cc3)c2)cc1 (centres undefined) | 79 to 81 °C |
| CN(C)C=C(C#N)C(=O)c1ccc(C(C)(CN)C(=O)OC(C)(C)C)cc1 (centres undefined) | 160 to 162 °C |
| CCOC(=O)c1ccc(NCCCCCCCCCCCOc2ccccc2)cc1 | 83 to 87 °C |
| CCOc1cc2ncc(C#N)c(Nc3ccc4c(c3)OCCO4)c2cc1OCC | 225 to 227 °C |
| Fc1ccc(C(OCCN2CCN(C(c3ccc(F)cc3)c3ccc(F)cc3)CC2)c2ccc(F)cc2)cc1 | 87 to 88 °C |
| Cc1cn(C(C)(C)C(=O)N(C)C)nc1-c1ccccc1C#N | 124 to 126 °C |
| CC(=O)c1cc2c(s1)S(=O)CCN(CCCCN1CCN(c3ncccn3)CC1)C2=O (centres undefined) | 103 to 106 °C |
| CCOC(=O)c1cnoc1-c1ccc2c(c1)OCO2 | 73 to 74 °C |
| CCO[C@@H](Cc1ccc(-c2nc([N+](=O)[O-])nn2C)cc1)C(=O)OC | 119 °C |
| N#Cc1cccc(C2C3=C(CCS3)NC3=C2C(=O)CCC3)c1 (single isomer, unassigned; (+)) | > 250 °C |
| CCCN1CCN(c2ccc(C(C)=O)cc2)CC1 | 68 to 70 °C |

| Structure (SMILES) | melting point |
| --- | --- |
| COC(=O)Cc1ccc(Oc2ccc(C#N)cc2)cc1 | 58 to 60 °C |
| COCCN1CCc2ccc(Nc3ncc4ccc(-c5ccccc5)n4n3)cc2CC1 | 116 to 118 °C |
| CCn1c(=O)n(CC(C)(C)O)c(=O)c2[nH]cnc21 | 217 to 219 °C |
| COC(=O)C1(C(N)=O)CC1 | 157 °C |
| CC(C)(C)c1cc(OC(=O)c2ccccc2)ccc1O | 120 to 121 °C |
| COC(=O)C(Cc1ccc(OCCN(C)c2nc3ccccc3o2)cc1)Sc1ccc(C)cc1 (centres undefined) | 88.6 to 90.1 °C |
| COc1ccc(C(=O)c2ccc(Br)cc2)c(F)c1 | 125 to 126 °C |
| Cc1cc(C)c2c(n1)Nc1ccccc1NC2=O | 297 to 299 °C |
| CSc1nc(OCCN2CCCC2=O)c(C#N)c(N2CCc3ccccc3CC2)n1 | 126 to 128 °C |
| CCCCCCOc1cc(-c2ccc3cc4c(cc3c2)C(C)(C)CCC4(C)C)ccc1C(=O)OC | 102 to 104 °C |
| O=C(NCCN1CC=C(n2c(=O)[nH]c3ccccc32)CC1)c1ccc(F)cc1 | 203 °C |
| Cc1ccc(C(O[Si](C)(C)C(C)(C)C)C(=O)N2CCOCC2)cc1 (centres undefined) | 64 to 65 °C |
| Oc1ccc(-c2cnc3cnc(-c4cccc(O)c4)nc3c2)cc1 | > 268 °C |
| O/N=C(/c1ccc(Cl)cc1)C1CC1 | 101 to 103 °C |
| C=CCOC1C(NC(C)=O)C(OCc2ccccc2)OC(COCc2ccccc2)C1OCc1ccccc1 (centres undefined) | 138 °C |
| CC(C)c1ccc(C(=O)NC(C)c2cccs2)cc1 (centres undefined) | 100 °C |
| CC(N)C(=O)NC(CCC(=O)NC(CC=CCC(=O)O)C(=O)O)C(=O)O (centres undefined) | 70 °C |
| CCCn1c(=O)c2c(NC)n[nH]c2n(Cc2cccnc2)c1=O | > 300 °C |
| COc1ccccc1-c1cc2c(Nc3cccc(Cl)c3)ncnc2[nH]1 | 221 °C |
| CNc1nc(C(C)c2ccc(-c3ccccc3)c(F)c2)co1 (centres undefined) | 134 to 135 °C |
| O=C(NCc1cccc2nc(N[C@@H]3CCc4ccccc43)ccc12)c1ccc(F)cc1 | 145 °C |
| Cc1ccc(Oc2ccc(-n3cc(C(=O)O)nn3)cc2)c(O)c1 | 159 to 161 °C |
| Cc1noc(C)c1-c1ccccc1C=NC(c1ccccc1)c1ccccc1 | 165 to 167 °C |
| CCOC(=O)NN=Cc1nc(-c2ccccc2)[nH]c1C | 209 to 211 °C |
| O=C1NC(=O)C(c2ccc(O)cc2)N1 (centres undefined) | 262 °C |

| Structure (SMILES) | melting point |
| --- | --- |
| O=C(CC(F)=C(F)F)NNC(=O)CC(F)=C(F)F | 191 to 193 °C |
| Oc1ccc2c(c1)C[C@H](O)[C@H](O)C2 (relative stereo) | 193 to 196 °C |
| COC(=O)c1c(C(=O)OC)c(-c2ccc(OC)cc2)c2cc3c(cc2c1O)OCO3 | 169 to 171 °C |
| CN1CCC(N(C)C(=O)c2ccc(Nc3nccc(Nc4ccc(C(F)(F)F)cc4)n3)cc2)CC1 | 238 to 244 °C |
| CC(=NNc1ccc([N+](=O)[O-])cc1)c1ccccc1 | 186 to 188 °C |
| COC(=O)C=CC(C)Oc1ccc(OCc2ccccc2)cc1 (centres undefined) | 80 to 89 °C |
| COc1cc2cc3c(nc2cc1OC)CCc1cc(Cl)ccc1-3 | 197 °C |
| Cc1ccnc2c1C(=O)CC(c1nccs1)C2 (centres undefined) | 88 to 89 °C |
| Cc1cccc(-n2c(-c3cc(-c4ccc(Cl)cc4)c(N4CCOCC4)s3)nc3ccccc3c2=O)c1 | 228 to 230 °C |
| CC(=O)N1c2ccccc2[C@@]2(C)Cc3ccccc3[C@@]12C (relative stereo) | 81 °C |
| Cc1cc2nc(C)c(=O)n(C)c2cc1C | 164 to 166 °C |
| Cc1cc(-c2ccccc2O)nn1-c1ccccc1 | 225 to 229 °C |
| CC(=O)Nc1nc2c(Oc3cc(-c4ccc(C(F)(F)F)cc4OS(=O)(=O)C(F)(F)F)ncn3)cccc2s1 | 209 to 212 °C |
| CC(C)=CCn1c(N2CCC(N)C2)nc2c1c(=O)n(C)c(=O)n2C (centres undefined) | 119 °C |
| O[C@@H]1CNC[C@H]1Oc1cccc(Cl)c1 (relative stereo) | 128 to 129 °C |
| CCOC(=O)N1CCC(O)(CN)CC1 | 82 °C |
| CC1(C(=O)N2C[C@H](S(=O)(=O)c3ccc(OCC(F)(F)F)cc3C(F)(F)F)C[C@H]2C(=O)NC2(C#N)CC2)CC1 | 126 to 127 °C |
| N#Cc1ccc(C(O)(Cc2ccccc2)Cc2ccccc2)cc1 | 153 °C |
| Cc1ccc(S(=O)(=O)NC(=O)c2cc(Oc3ccc(C(F)(F)F)cc3Cl)ccc2[N+](=O)[O-])cc1 | 150 °C |
| Cc1ccc(S(=O)(=O)N2CCN(S(=O)(=O)c3ccc(C)cc3)CC(=O)NCC(C3CCCCC3)NC(=O)CN(S(=O)(=O)c3ccc(C)cc3)CC2)cc1 (centres undefined) | 224 °C |
| C=Cc1cc2ccccc2[nH]1 | 91 °C |
| CCCc1c(C(=O)NCc2ccc3cc(O)ccc3c2)cnn1-c1ccccc1 | 189 to 190 °C |
| CCCc1cccc2c(/C=C(\C)C(=O)O)cc(OC)c(OCOC)c12 | 67 to 68 °C |
| COc1ccc(CN2C(=O)C(O)(c3cc4c(C)noc4cc3O)c3ccccc32)cc1 (centres undefined) | 199 to 201 °C |
